What all share (assay): relative viability (nuclei count vs DMSO), 5 days (fraction); higher = more cells survive
Compound in test [1]: CCN1CCC(CC1)N2C=C(N=N2)CNC3=CC4=C(C(=CN=C4C(=C3)Cl)C#N)NC5=CC(=C(C=C5)F)Cl [KIN001-266] + CC(=O)c1c(C)c2cnc(Nc3ccc(N4CCNCC4)cn3)nc2n(C2CCCC2)c1=O [Palbociclib] (partner 0.5 µM)
The method in brief:
(§1)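 Each reported value is a median over duplicate plates. It expresses relative viability: treated-well nuclei count divided by vehicle-well nuclei count. Lung cancer cell lines in 1536-well plates were dosed by pin tool a day after seeding, alone with one drug or with a fixed anchor-drug dose plus five library-drug doses (not always all listed) in √10 steps, and nuclei were counted after 5 days.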

Compound in test [2]: CCN1CCC(CC1)N2C=C(N=N2)CNC3=CC4=C(C(=CN=C4C(=C3)Cl)C#N)NC5=CC(=C(C=C5)F)Cl [KIN001-266] + CC(C)C[C@H](NC(=O)[C@H](Cc1ccccc1)NC(=O)c1cnccn1)B(O)O [Bortezomib] (partner 0.002 µM)
The method in brief: as §1

Compound in test [3]: CCN1CCC(CC1)N2C=C(N=N2)CNC3=CC4=C(C(=CN=C4C(=C3)Cl)C#N)NC5=CC(=C(C=C5)F)Cl [KIN001-266] + Cc1nc(NC(=O)N2CCC[C@H]2C(N)=O)sc1-c1ccnc(C(C)(C)C(F)(F)F)c1 [Alpelisib] (partner 2 µM)
The method in brief:
as §1

Compound in test [4]: CCN1CCC(CC1)N2C=C(N=N2)CNC3=CC4=C(C(=CN=C4C(=C3)Cl)C#N)NC5=CC(=C(C=C5)F)Cl [KIN001-266] + Cc1nc(Nc2ncc(C(=O)Nc3c(C)cccc3Cl)s2)cc(N2CCN(CCO)CC2)n1 [Dasatinib] (partner 0.075 µM)
The method in brief: as §1

The values below come from the supplement of paper PMC10307832.

Take NCI-H441: the relative viability in test [1] (first compound 0.08 µM) came to 0.294; in test [1] (first compound 0.253 µM) it was 0.223; in test [1] (first compound 0.8 µM), 0.217; in test [1] (first compound 2.53 µM), 0.22; in test [1] (first compound 8 µM), 0.259; in test [2] (first compound 0.08 µM), 0.603. In addition, the relative viability in test [2] (first compound 0.253 µM) was 0.811; in test [2] (first compound 0.8 µM), 0.478; in test [2] (first compound 2.53 µM), 0.457; in test [2] (first compound 8 µM), 0.554; in test [3] (first compound 0.08 µM), 0.75; in test [3] (first compound 0.253 µM), 0.822. Moreover, the relative viability in test [3] (first compound 0.8 µM) was 0.73; in test [3] (first compound 2.53 µM), 0.793; in test [3] (first compound 8 µM), 0.496; in test [4] (first compound 0.08 µM), 0.655; in test [4] (first compound 0.253 µM), 0.836; in test [4] (first compound 0.8 µM), 0.64. Also, the relative viability in test [4] (first compound 2.53 µM) amounted to 0.658; in test [4] (first compound 8 µM), 0.362.
Consider NCI-H1793, for which the relative viability in test [1] (first compound 0.08 µM) was determined as 0.316; in test [1] (first compound 0.253 µM), 0.358; in test [1] (first compound 2.53 µM), 0.354; in test [1] (first compound 8 µM), 0.307; in test [3] (first compound 0.08 µM), 0.829; in test [3] (first compound 0.253 µM) it was 0.624. The relative viability in test [3] (first compound 0.8 µM) is 0.822; in test [3] (first compound 2.53 µM) it was 0.897; in test [3] (first compound 8 µM), 0.572; in test [4] (first compound 0.08 µM) it was 0.332; in test [4] (first compound 0.253 µM) it was 0.389; in test [4] (first compound 0.8 µM), 0.391. In addition, the relative viability stood at 0.329 in test [4] (first compound 2.53 µM) and 0.369 in test [4] (first compound 8 µM).
With NCI-H23, the relative viability in test [1] (first compound 0.08 µM) worked out at 0.46; in test [1] (first compound 0.253 µM), 0.423; in test [1] (first compound 0.8 µM) it was 0.522; in test [1] (first compound 2.53 µM), 0.532; in test [1] (first compound 8 µM), 0.402; in test [2] (first compound 0.08 µM) it was 1.14. Further, the relative viability in test [2] (first compound 0.253 µM) stood at 1.1; in test [2] (first compound 0.8 µM), 1.04; in test [2] (first compound 2.53 µM), 0.916; in test [2] (first compound 8 µM) it was 0.642; in test [3] (first compound 0.08 µM) it was 0.768; in test [3] (first compound 0.253 µM) it was 0.646. In addition, the relative viability is 0.733 in test [3] (first compound 0.8 µM); 0.663 in test [3] (first compound 2.53 µM); 0.695 in test [3] (first compound 8 µM); 0.867 in test [4] (first compound 0.08 µM); 0.86 in test [4] (first compound 0.253 µM); 0.917 in test [4] (first compound 0.8 µM). Moreover, the relative viability stood at 0.683 in test [4] (first compound 2.53 µM) and 0.85 in test [4] (first compound 8 µM).
For NCI-H1703, the relative viability stood at 0.378 in test [2] (first compound 0.08 µM); 0.317 in test [2] (first compound 0.253 µM); 0.296 in test [2] (first compound 0.8 µM); 0.273 in test [2] (first compound 2.53 µM); 0.291 in test [2] (first compound 8 µM); 0.419 in test [3] (first compound 0.08 µM). For the same cell line, the relative viability worked out at 0.307 in test [3] (first compound 0.253 µM), 0.31 in test [3] (first compound 0.8 µM), 0.289 in test [3] (first compound 2.53 µM) and 0.325 in test [3] (first compound 8 µM).
For NCI-H2342, the relative viability amounted to 0.52 in test [1] (first compound 0.08 µM); 0.518 in test [1] (first compound 0.253 µM); 0.471 in test [1] (first compound 0.8 µM); 0.597 in test [1] (first compound 2.53 µM); 0.575 in test [1] (first compound 8 µM); 0.298 in test [4] (first compound 0.08 µM). Further, the relative viability in test [4] (first compound 0.253 µM) is 0.303; in test [4] (first compound 0.8 µM) it was 0.258; in test [4] (first compound 2.53 µM), 0.264; in test [4] (first compound 8 µM), 0.31.
As to NCI-H1395, the relative viability in test [1] (first compound 0.08 µM) is 0.671; in test [1] (first compound 0.253 µM), 0.614; in test [1] (first compound 0.8 µM), 0.648; in test [1] (first compound 2.53 µM), 0.602; in test [1] (first compound 8 µM), 0.616; in test [3] (first compound 0.08 µM) it was 1.07. Also, the relative viability in test [3] (first compound 0.253 µM) was determined as 1.06; in test [3] (first compound 0.8 µM) it was 1.23; in test [3] (first compound 2.53 µM) it was 0.955; in test [3] (first compound 8 µM) it was 1.05; in test [4] (first compound 0.08 µM), 0.413; in test [4] (first compound 0.253 µM), 0.388. Further, the relative viability in test [4] (first compound 0.8 µM) was found to be 0.43; in test [4] (first compound 2.53 µM) it was 0.418; in test [4] (first compound 8 µM), 0.429.
As to NCI-H1648, the relative viability in test [1] (first compound 0.08 µM) worked out at 0.298; in test [1] (first compound 0.253 µM) it was 0.277; in test [1] (first compound 0.8 µM) it was 0.277; in test [1] (first compound 2.53 µM) it was 0.281; in test [1] (first compound 8 µM), 0.261.
With A549, the relative viability came to 1.01 in test [3] (first compound 0.08 µM); 0.782 in test [3] (first compound 0.253 µM); 0.898 in test [3] (first compound 0.8 µM); 0.758 in test [3] (first compound 2.53 µM); 0.701 in test [3] (first compound 8 µM).
In the case of IA-LM, the relative viability in test [2] (first compound 0.08 µM) came out at 0.838; in test [2] (first compound 0.253 µM), 0.729; in test [2] (first compound 0.8 µM) it was 0.94; in test [2] (first compound 2.53 µM), 0.736; in test [2] (first compound 8 µM) it was 0.674; in test [3] (first compound 0.08 µM), 1.09. In addition, the relative viability was 0.652 in test [3] (first compound 0.253 µM), 0.754 in test [3] (first compound 0.8 µM), 0.635 in test [3] (first compound 2.53 µM) and 0.755 in test [3] (first compound 8 µM).
Turning to ChaGo-K-1, the relative viability in test [1] (first compound 0.08 µM) amounted to 0.949; in test [1] (first compound 0.253 µM), 1.01; in test [1] (first compound 0.8 µM) it was 0.851; in test [1] (first compound 2.53 µM), 0.84; in test [1] (first compound 8 µM) it was 0.428; in test [2] (first compound 0.08 µM), 1.11. For the same cell line, the relative viability was determined as 1.17 in test [2] (first compound 0.253 µM); 1.09 in test [2] (first compound 2.53 µM); 1.1 in test [2] (first compound 8 µM); 0.581 in test [4] (first compound 0.08 µM); 0.58 in test [4] (first compound 0.253 µM); 0.528 in test [4] (first compound 0.8 µM). Further, the values for the relative viability in test [4] (first compound 2.53 µM) and in test [4] (first compound 8 µM) were 0.512 and 0.533, respectively.
Regarding SW 900, the relative viability in test [1] (first compound 0.08 µM) amounted to 0.558; in test [1] (first compound 0.253 µM), 0.498; in test [1] (first compound 0.8 µM), 0.611; in test [1] (first compound 2.53 µM), 0.555; in test [1] (first compound 8 µM), 0.268; in test [4] (first compound 0.08 µM), 0.753. Also, the relative viability in test [4] (first compound 0.253 µM) came to 0.491; in test [4] (first compound 0.8 µM) it was 0.544; in test [4] (first compound 2.53 µM), 0.764; in test [4] (first compound 8 µM), 0.507.
Regarding LK-2, the relative viability in test [1] (first compound 0.08 µM) is 0.794; in test [1] (first compound 0.253 µM) it was 0.691; in test [1] (first compound 0.8 µM), 0.797; in test [1] (first compound 2.53 µM), 0.589; in test [1] (first compound 8 µM) it was 0.67; in test [3] (first compound 0.08 µM), 1.3. Also, the relative viability in test [3] (first compound 0.8 µM) was 1.17; in test [3] (first compound 8 µM), 1.11; in test [4] (first compound 0.08 µM) it was 0.361; in test [4] (first compound 0.253 µM), 0.256; in test [4] (first compound 0.8 µM), 0.237; in test [4] (first compound 2.53 µM) it was 0.269. For the same cell line, the relative viability in test [4] (first compound 8 µM) was 0.22.
